In US10668094B2, “Selective inhibitors of Alpha2-containing isoforms of Na,K-ATPase and use thereof for reduction of intraocular pressure” (Yeda Research and Development Co. Ltd., priority 2015, dated 2020):
“Also recorded” adds a separate entry of the source.

Key:
basal IOP in rabbits = test: Basal IOP in rabbits, topical administration; type: in vivo, rabbit; conditions: one drop of 1 mM solution, other eye PBS
[1] = target: human Na,K-ATPase α1β1FXYD1 (Homo sapiens (Human), UniProt P05023); type: biochemical; conditions: read-out: Ki in nM ± SEM α1β1
[2] = target: human Na,K-ATPase α2β1FXYD1 (Homo sapiens, UniProt P50993); type: biochemical; conditions: read-out: Ki in nM ± SEM α2β1
[3] = test system: 4AP-induced IOP in rabbits; type: in vivo, rabbit; conditions: 10 μM
[4] = test system: Na,K-ATPase in bovine ciliary NPE cells; test: biochemical; conditions: 1 site model; read-out: Ki, nM ± SEM
[5] = target: human Na,K-ATPase α2β3FXYD1 (Homo sapiens (Human), UniProt P50993+P54709); test: biochemical; type: biochemical; conditions: for Ki: read-out: Ki in nM ± SEM α2β3
[6] = target: human Na,K-ATPase α2β2FXYD1 (Homo sapiens (Human), UniProt P50993); type: biochemical; conditions: for Ki: read-out: Ki in nM ± SEM α2β2
[7] = test system: human Na,K-ATPase α2β1FXYD1; type: biochemical

Row | Compound | effect on lowering basal IOP (basal IOP in rabbits) | Ki [1] [nM] | Ki [2] [nM] | effect on 4AP-induced IOP [3] | Ki [4] [nM] | Selectivity Ki ratio α1β1/α2β3 [5] | Ki [5] [nM] | Selectivity Ki ratio α1β1/α2β2 [6] | Ki [6] [nM] | Selectivity Ki ratio α1β1/α2β1 [7] | selectivity for α2β3 over α1β1 (Ki α1β1:α2β3 ratio) [5]
1 | CC(C)CN1CCC(O[C@@H]2[C@H](C)O[C@@H](O[C@@H]3[C@H](C)O[C@@H](O[C@H]4CC[C@@]5(C)C(CCC6C5C[C@H](O)[C@]5(C)[C@@H](C7=CC(=O)OC7)CC[C@]65O)C4)C[C@@H]3O)C[C@@H]2O)OC(C)C1 (some centres unmarked) [DiB] | lack of effect; also recorded: neither digoxin nor DiB had a significant effect | 92 | 20.6 ± 1.4 | still effective | – | – | – | – | – | – | –
2 | CC1CN(C)CCC(O[C@@H]2[C@H](C)O[C@@H](O[C@@H]3[C@H](C)O[C@@H](O[C@H]4CC[C@@]5(C)C(CCC6C5C[C@H](O)[C@]5(C)[C@@H](C7=CC(=O)OC7)CC[C@]65O)C4)C[C@@H]3O)C[C@@H]2O)O1 (some centres unmarked) [DMe] | – | 103 ± 5.6 | 15.3 ± 1.2 | – | 15.6 ± 1.3 | 9.5 | 10.8 ± 0.6 | 5.1 | 20.4 ± 1.8 | 6.7 | –
3 | CC1CN(CCS(N)(=O)=O)CCC(O[C@@H]2C(C)O[C@@H](OC3C(C)OC(O[C@H]4CC[C@@]5(C)C(CCC6C5CC(O)[C@]5(C)[C@@H](C7=CC(=O)OC7)CC[C@]65O)C4)C[C@@H]3O)C[C@@H]2O)O1 (stereo in doubt) [DESA, 2-(7-(((2R,3S,4S,6S)-6-(((2R,3R,4S,6S)-6-(((3S,5R,8R,9S,10S,12R,13S,14S,17R)-12,14-dihydroxy-10,13-dimethyl-17-(5-oxo-2,5-dihydrofuran-3-yl)hexadecahydro-1H-cyclopenta[a]phenanthren-3-yl)oxy)-4-hydroxy-2-methyltetrahydro-2H-pyran-3-yl)oxy)-4-hydroxy-2-methyltetrahydro-2H-pyran-3-yl)oxy)-2-methyl-1,4-oxazepan-4-yl)ethanesulfonamide] | – | 301 ± 23 | 38.9 ± 2.2 | – | – | 15 | 20.1 ± 0.9 | 9.5 | 31.5 ± 4.4 | 7.7 | –
4 | CC1CN(C2CCCCC2)CCC(O[C@@H]2C(C)O[C@@H](OC3C(C)OC(O[C@H]4CC[C@@]5(C)C(CCC6C5CC(O)[C@]5(C)[C@@H](C7=CC(=O)OC7)CC[C@]65O)C4)C[C@@H]3O)C[C@@H]2O)O1 (stereo in doubt) [DcH, 4-((3S,5R,8R,9S,10S,12R,13S,14S,17R)-3-(((2S,4S,5R,6R)-5-(((2S,4S,5S,6R)-5((4-cyclohexyl-2-methyl-1,4-oxazepan-7-yl)oxy)-4-hydroxy-6-methyltetrahydro-2H-pyran-2-yl)oxy)-4-hydroxy-6-methyltetrahydro-2H-pyran-2-yl)oxy)-12,14-dihydroxy-10,13-dimethylhexadecahydro-1H-cyclopenta[a]phenanthren-17-yl)furan-2(5H)-one] | – | 70.4 ± 4.1 | 15.2 ± 3.7 | – | – | 10.1 | 11.7 ± 4.5 | 4.6 | 15.3 ± 2.9 | 4.6 | 10-12 fold
5 | CC1CN(C2CCCC2)CCC(O[C@@H]2C(C)O[C@@H](OC3C(C)OC(O[C@H]4CC[C@@]5(C)C(CCC6C5CC(O)[C@]5(C)[C@@H](C7=CC(=O)OC7)CC[C@]65O)C4)C[C@@H]3O)C[C@@H]2O)O1 (stereo in doubt) [DcPe, 4-((3S,5R,8R,9S,10S,12R,13S,14S,17R)-3-(((2S,4S,5R,6R)-5-(((2S,4S,5S,6R)-5-((4-cyclopentyl-2-methyl-1,4-oxazepan-7-yl)oxy)-4-hydroxy-6-methyltetrahydro-2H-pyran-2-yl)oxy)-4-hydroxy-6-methyltetrahydro-2H-pyran-2-yl)oxy)-12,14-dihydroxy-10,13-dimethylhexadecahydro-1H-cyclopenta[a]phenanthren-17-yl)furan-2(5H)-one] | – | 138 ± 21 | 33.4 ± 7.5 | – | – | 5 | 27.6 ± 9.5 | 4.1 | 33.5 ± 11.9 | 4.1 | 10-12 fold
6 | CCCN1CCC(O[C@@H]2[C@H](C)O[C@@H](O[C@@H]3[C@H](C)O[C@@H](O[C@H]4CC[C@@]5(C)C(CCC6C5C[C@H](O)[C@]5(C)[C@@H](C7=CC(=O)OC7)CC[C@]65O)C4)C[C@@H]3O)C[C@@H]2O)OC(C)C1 (some centres unmarked) [DP] | – | 87.7 ± 7.9 | 18.3 ± 1.68 | – | – | 8.8 | 9.8 ± 1.1 | 8.3 | 10.5 ± 1.8 | 4.8 | –
7 | CC1CN(C(C)(C)C)CCC(O[C@@H]2[C@H](C)O[C@@H](O[C@@H]3[C@H](C)O[C@@H](O[C@H]4CC[C@@]5(C)C(CCC6C5C[C@H](O)[C@]5(C)[C@@H](C7=CC(=O)OC7)CC[C@]65O)C4)C[C@@H]3O)C[C@@H]2O)O1 (some centres unmarked) [DtB] | – | 135 | 21.6 ± 5.6 | – | – | 8.2 | 16.3 ± 0.28 | 7.3 | 18.4 ± 1.1 | 6.2 | –
8 | CC1CN(C(C)C)CCC(O[C@@H]2[C@H](C)O[C@@H](O[C@@H]3[C@H](C)O[C@@H](O[C@H]4CC[C@@]5(C)C(CCC6C5C[C@H](O)[C@]5(C)[C@@H](C7=CC(=O)OC7)CC[C@]65O)C4)C[C@@H]3O)C[C@@H]2O)O1 (some centres unmarked) [DiP] | – | 149 | 28.9 ± 1.7 | – | – | 14.4 | 10.3 ± 1.8 | 8.9 | 16.7 ± 1.9 | 5.1 | –
9 | CCN1CCC(O[C@@H]2[C@H](C)O[C@@H](O[C@@H]3[C@H](C)O[C@@H](O[C@H]4CC[C@@]5(C)C(CCC6C5C[C@H](O)[C@]5(C)[C@@H](C7=CC(=O)OC7)CC[C@]65O)C4)C[C@@H]3O)C[C@@H]2O)OC(C)C1 (some centres unmarked) [DEt] | – | 138 ± 12.6 | 23.2 ± 0.9 | – | – | 9.5 | 14.4 ± 1.27 | 8.3 | 16.4 ± 1.6 | 5.9 | –
10 | CC1CN(C[Si](C)(C)C)CCC(OC2C(O)CC(OC3C(O)CC(OC4CCC5(C)C(CCC6C5CC(O)C5(C)C(C7=CC(=O)OC7)CCC65O)C4)OC3C)OC2C)O1 (centres unmarked) [DTMS] | – | 72.6 ± 17.6 | 24.3 ± 4 | – | – | 6.5 | 11.1 ± 1.6 | 5.1 | 14.3 ± 1.3 | 3 | –
11 | CC1CN(CS(C)(=O)=O)CCC(O[C@@H]2C(C)O[C@@H](OC3C(C)OC(O[C@H]4CC[C@@]5(C)C(CCC6C5CC(O)[C@]5(C)[C@@H](C7=CC(=O)OC7)CC[C@]65O)C4)C[C@@H]3O)C[C@@H]2O)O1 (stereo in doubt) [DMSM, 4-((3S,5R,8R,9S,10S,12R,13S,14S,17R)-12,14-dihydroxy-3-(((2S,4S,5R,6R)-4-hydroxy-5-(((2S,4S,5S,6R)-4-hydroxy-6-methyl-5-((2-methyl-4-((methylsulfonyl)methyl)-1,4-oxazepan-7-yl)oxy)tetrahydro-2H-pyran-2-yl)oxy)-6-methyltetrahydro-2H-pyran-2-yl)oxy)-10,13-dimethylhexadecahydro-1H-cyclopenta[a]phenanthren-17-yl)furan-2(5H)-one] | – | 944 ± 123 | 137 ± 9.8 | – | – | 10.6 | 89 | 7.7 | 123 ± 7.3 | 6.9 | –
